Assays:
[1] = system: rice atrichoblasts on lateral roots; experiment: Calcium spiking (YC3.6 imaging) in rice atrichoblasts on lateral roots; type: cell-based, Oryza sativa cv Nipponbare; details: for calcium oscillations: FIG. 1; for calcium oscillations, CO4 compared with CO8: 10^−8M and 10^−5 M, FIG. 2
Method: (§1) Mycorrhizal induced calcium responses were measured as described previously (14). Transgenic Oryza sativa Nipponbare lines carrying Yellow Cameleon 3.6 (YC3.6) FRET-based calcium sensor was used to detect calcium spiking. YC3.6 was imaged on a Nikon Eclipse Ti inverted microscope (Nikon, Japan) equipped with an OptoLED Illuminator (model OptoLED, Cairn Research Ltd, UK). YC3.6 was excited at a wavelength of 455 nm using a royal blue LED and was captured with a charge-coupled device (CCD) camera (model RETIGA-SRV, Qimaging, Canada). Emitted fluorescence was separated by an image splitter with a dichroic mirror (model Optosplit II, Cairn Research Ltd, UK) and then passed through a fluorescence filter set. Images were collected every 5 seconds with 1-second exposure and analyzed using MetaFluor (Molecular Devices, Sunnyvale, Calif., USA).
For Bayesian Spectrum Analysis we computed the most probable periods in the time series following published procedures (15). Ten traces per treatment were analyzed. The joint distributions over the period were used to characterize each group. The plots show binned data to summarize the key periods. These ten traces per treatment were also analyzed for interspike intervals. The point of maximum height for each spike was computed after detrending of the time series using a moving average algorithm. The distances between these maxima gave rise to an interspike distribution. We used the non-parametric Mann-Whitney U-test, also known as the Mann-Whitney-Wilcoxon test (16, 17) to test for significant differences between the distributions.
Three traces per treatment, with approximately 80 spikes altogether, were analyzed for calcium spike characteristics. […] The traces were detrended using a moving average algorithm (18). We then characterized the spikes by the time required for each upward and downward phase. This was computed by the number of data points it took from the maximum spike height to the baseline fluctuation of the trace. The plots show the mean value of the upward and downward phases for each treatment, and the associated standard deviations are indicated by the error bars.
Calcium responses were assessed using a stably transformed line of Oryza sativa cv Nipponbare carrying YC3.6. […] To test an array of different LCO structures, we analyzed calcium spiking in response to Nod factor isolations from the broad host range rhizobial species, Rhizobium sp. NGR234, as well as Rhizobium tropici, in addition to the Myc-LCOs.

Rice = experiment: Foliar treatment of rice; type: in vivo; details: foliar 10^−6 M with 0.05% Silwet L-77; for shoot length: FIG. 12A
Method: Rice seeds were surface sterilized using 2% bleach. Seeds were then germinated on damp germination paper in sterile Petri dishes for 5 days. The seedlings were then transferred to Fahraeus medium plates containing damp germination paper. The plates were wrapped in Parafilm®, and the roots part of the plate covered with aluminum foil.
The plants were grown at room temperature under continuous light for 21 days. The plants were then transferred to moistened SUNGRO® soil pots (8×8×10 cm) and grown for 3 days under greenhouse condition. The plants were hydrated by pouring water into the tray underneath the pots.
The soil surface was then covered with plastic wrap to prevent any liquid droplets from contacting the soil. Using painting brushes, the front, and back of the plant leaves were treated with 3 ml of chitin derived compounds (CO4 and CO8) at 10^−6 M or a control (0.5% ethanol), each including 0.05% of Silwet L-77 (surfactant). Eleven plants were treated with each solution. The plants were subsequently grown for 14 days, and the shoot length was measured. Once a week, half-strength Hoagland solution was added into the trays underneath the pots. The plants were grown for another 4 days, and the lengths of the shoot and root systems were measured.

[2] = system: rice trichoblasts (root hair cells); experiment: Calcium spiking (YC3.6 imaging) in rice trichoblasts (root hair cells); type: cell-based, Oryza sativa cv Nipponbare; details: 10^−5 M, FIG. 5, FIG. 6
Method: as §1
Both LCOs and COs are Required to Induce Calcium Spiking in Trichoblasts. Rhizobia colonize legumes by root hair cells (trichoblasts), whereas AM fungi colonize roots via non-root hair epidermal cells (atrichoblasts). Thus, these different root epidermal cell types may respond differently to COs and LCOs. To test this, we directly compared trichoblast and atrichoblast responses using high concentrations of CO4 in rice. Calcium oscillations observed in rice following treatments of CO4 were restricted to atrichoblasts, with no responses in trichoblasts even with CO4 treatments of 10^−5 M (FIG. 5). This preferential nature of rice atrichoblasts to respond to the AM signals is consistent with a preference for AM fungi to colonize the root via atrichoblasts (26). It is possible that either AM fungi produce signalling molecules other than S-LCO, NS-LCO and CO4 that induce calcium oscillations in rice trichoblasts, or that the mix of signalling molecules is important. To test this, we assessed induction of calcium oscillations by an equimolar mix of 10^−5 M S-LCO, NS-LCO, and CO4.

M. truncatula = experiment: Lateral root emergence in M. truncatula; type: in vivo, Medicago truncatula; details: 10^−7 M; fold induction relative to the control; FIG. 7
Method: M. truncatula roots were treated with 10^−7 M CO4 or 10^−7 M NS-LCO and the effect on lateral root emergence was measured. The numbers in parentheses indicate the number of plants analyzed. The significance of the difference to the […] control plants, as measured using a t-test, is indicated. The treatments are measured as fold induction relative to the control. Error bars represent the standard error.
Accordingly, the disclosed method is limited in scope to treating non-leguminous plants, or seeds, seedlings or plant parts thereof.

[3] = system: pea (the legume Pisum sativum); experiment: Seed treatment of pea in pots; type: in vivo; details: seed coating 125 μl of 10^−6 M, 2 weeks after planting, * significant at P < 0.05
Method: Five grams of pea seeds (the legume Pisum sativum) were added to three separate 50 ml tubes. A water solution containing 0.5% ethanol was added to the control tube, 125 μl of 10^−6M CO4 solution was added to the CO4 tube, and 125 μl of 10^−6 M CO8 solution was added to the CO8 tube. Each tube was then shaken to coat the seeds. Seeds were potted immediately following treatment into moistened SUNGRO® potting mix in 4×6×6 cm pots. Plants were watered by pouring water into the tray containing the pots up to about ¾ inch high. After sowing the seeds, the pots were randomly distributed (16 pots per treatment) throughout the tray and placed underneath continuous light at room temperature for 1 week. Liquid Fahräeus medium (plant fertilizer solution; see above) was applied every 2 days or when necessary. After a week, the pots were placed underneath 10 h light and 14 h dark cycle at room temperature for 1 week. After 1 week underneath 10 h light and 14 h dark cycle (2 weeks after planting), the plants were carefully removed from the pots, and as much soil as possible was shaken off. The remaining soil was removed by submerging the root system into a beaker of water. The number of primary roots (PR), lateral roots (LR), root system length (RSL) and dry weight (DW) were then measured for all plants.

| Compound | calcium oscillations ([1]; 10^−5M, rice large lateral roots, epidermal cells (atrichoblasts)) | calcium oscillations, CO4 compared with CO8 [1] | calcium oscillations ([1]; 10^−8M, rice epidermal cells, robustness and number of responsive cells reduced) | shoot length (Rice; day 14 after treatment) | shoot length (Rice; day 18 after treatment) | root system length (Rice; day 18 after treatment, FIG. 12B) | calcium spiking in trichoblasts [2] | lateral root emergence (M. truncatula) | Average Lateral Roots [3] | Average Primary Roots [3] |
| --- | --- | --- | --- | --- | --- | --- | --- | --- | --- | --- |
| CC(=O)N[C@H]1[C@H](O[C@H]2[C@H](O)[C@@H](NC(C)=O)C(O)O[C@@H]2CO)O[C@H](CO)[C@@H](O[C@@H]2O[C@H](CO)[C@@H](O[C@@H]3O[C@H](CO)[C@@H](O)[C@H](O)[C@H]3NC(C)=O)[C@H](O)[C@H]2NC(C)=O)[C@@H]1O (some centres unmarked) [CO4, tetra-N-acetylchitotetraose] | strong calcium oscillations | respond equally well | still showed calcium oscillations | significantly increased | significance was even higher | significantly promoted | no responses | could not induce lateral root emergence | – | – |
| CC(=O)N[C@H]1[C@H](O[C@H]2[C@H](O)[C@@H](NC(C)=O)[C@H](O[C@H]3[C@H](O)[C@@H](NC(C)=O)[C@H](O[C@H]4[C@H](O)[C@@H](NC(C)=O)C(O)O[C@@H]4CO)O[C@@H]3CO)O[C@@H]2CO)O[C@H](CO)[C@@H](O[C@@H]2O[C@H](CO)[C@@H](O[C@@H]3O[C@H](CO)[C@@H](O[C@@H]4O[C@H](CO)[C@@H](O[C@@H]5O[C@H](CO)[C@@H](O)[C@H](O)[C@H]5NC(C)=O)[C@H](O)[C@H]4NC(C)=O)[C@H](O)[C@H]3NC(C)=O)[C@H](O)[C@H]2NC(C)=O)[C@@H]1O (some centres unmarked) [CO8, octa-N-acetyl-chitooctaose] | – | respond equally well | – | – | – | – | – | – | significantly decreased | significantly decreased |
